Values quoted from earlier work, collected in patent publication US20220088213A1, “DRUG DELIVERY SYSTEM USING PH-DEPENDENT CELL-PENETRATING PEPTIDES, AND COMPOSITE THEREOF WITH DRUG” (priority 2019, published 2022).
Like-named read-outs stand apart in the source and are kept apart here.

Tested on: cell membrane
Conditions: cited from earlier work

Substance | cell-penetrating activity (pH dependence) | cell membrane penetration (acidic pH conditions) | cell membrane penetration (neutral pH)
ATRAM (GLAGLAGLLGLEGLLGLPLGLLEGLWLGLELEGN; Penetrating Peptide) | exhibits cell-penetrating activity only at a slightly acidic pH |  | 
GALA |  | penetrates a cell membrane | cannot penetrate the cell membrane
